Test results reported in US8101612B2, “Phthalazine compounds and methods of use” (Amgen Inc., priority 2006, dated 2012).

Experiments:
[1] = system: THP1 cells (LPS-induced TNF-α secretion); assay: Lipopolysaccharide-activated THP1 cell TNF production assay; type: cell-based; settings: Homo sapiens, THP-1
Protocol: Lipopolysaccharide-Activated THP1 Cell TNF Production Assay
THP1 cells are resuspended in fresh THP1 media (RPMI 1640, 10% heat-inactivated FBS, 1XPGS, 1XNEAA, plus 30 μM βME) at a concentration of 1E6/mL. One hundred microliters of cells per well are plated in a polystyrene 96-well tissue culture. One microgram per mL of bacterial LPS is prepared in THP1 media and is transferred to the wells. Test compounds are dissolved in 100% DMSO and are serially diluted 3-fold in a polypropylene 96-well microtiter plate (drug plate). HI control and LO control wells contain only DMSO. One microliter of test compound from the drug plate followed by 10 μL of LPS are transferred to the cell plate. The treated cells are induced to synthesize and secrete TNF-α at 37° C. for 3 h. Forty microliters of conditioned media are transferred to a 96-well polypropylene plate containing 110 μL of ECL buffer (50 mM Tris-HCl pH 8.0, 100 mM NaCl, 0.05% Tween 20, 0.05% NaN3 and 1% FBS) supplemented with 0.44 nM MAB610 monoclonal Ab (R&D Systems), 0.34 nM ruthenylated AF210NA polyclonal Ab (R&D Systems) and 44 μg/mL sheep anti-mouse M280 Dynabeads (Dynal). After a 2 h incubation at room temperature with shaking, the reaction is read on the ECL M8 Instrument (IGEN Inc.). A low voltage is applied to the ruthenylated TNF-α immune complexes, which in the presence of TPA (the active component in Origlo), results in a cyclical redox reaction generating light at […]. The amount of secreted TNF-α in the presence of compound compared with that in the presence of DMSO vehicle alone (HI control) is calculated using the formula: % control (POC)=(cpd−average LO)/(average HI−average LO)*100. Data (consisting of POC and inhibitor concentration in μM) is fitted to a 4-parameter equation (y=A+((B−A)/(1+((x/C)^D))), where A is the minimum y (POC) value, B is the maximum y (POC), C is the x (cpd concentration) at the point of inflection and D is the slope factor) using a Levenburg-Marquardt non-linear regression algorithm.

[2] = system: production of TNF by monocytes activated with bacterial lipopolysaccharide (LPS); assay: Lipopolysaccharide-activated monocyte TNF production assay (whole blood monocyte assay, LPS induced TNF release); type: cell-based; settings: Homo sapiens
Protocol: Lipopolysaccharide-Activated Monocyte TNF Production Assay
Test compounds were evaluated in vitro for the ability to inhibit the production of TNF by monocytes activated with bacterial lipopolysaccharide (LPS). Fresh residual source leukocytes (a byproduct of plateletpheresis) were obtained from a local blood bank, and peripheral blood mononuclear cells (PBMCs) were isolated by density gradient centrifugation on Ficol-Paque Plus (Pharmacia). PBMCs were suspended at 2×10^6/mL in DMEM supplemented to contain 2% FCS, 10 mM, 0.3 mg/mL […], 100 U/mL penicillin G and […] streptomycin sulfate (complete media). Cells were plated into Falcon flat bottom, 96 well culture plates (200 μL/well) and cultured overnight at 37° C. and 6% CO2. Non-adherent cells were removed by washing with 200 μl/well of fresh medium. Wells containing adherent cells (˜70% monocytes) were replenished with 100 μL of fresh medium.
Preparation of Test Compound Stock Solutions
Test compounds were dissolved in […]. Compound stock solutions were prepared to an initial concentration of […]. Stocks were diluted initially to 20-200 μM in complete media. Nine two-fold serial dilutions of each compound were then prepared in complete medium.
Treatment of Cells with Test Compounds and Activation of TNF Production with Lipopolysaccharide
One hundred microliters of each test compound dilution were added to microtiter wells containing adherent monocytes and 100 μL complete medium. Monocytes were cultured with test compounds for 60 min at which time 25 μL of complete medium containing 30 ng/mL lipopolysaccharide from E. coli K532 were added to each well. Cells were cultured an additional 4 hrs. Culture supernatants were then removed and TNF presence in the supernatants was quantified using an ELISA.
Flat bottom, 96 well Corning High Binding ELISA plates were coated overnight (4° C.) with 150 μL/well of 3 μg/mL murine anti-human TNF-α MAb (R&D Systems #MAB210). Wells were then blocked for 1 h at room temperature with 200 μL/well of CaCl2-free ELISA buffer supplemented to contain 20 mg/mL BSA (standard ELISA buffer: […], 150 mM NaCl, 2 mM CaCl2, 0.15 mM thimerosal, pH 7.4). Plates were washed and replenished with 100 μL of test supernatants (diluted 1:3) or standards. Standards consisted of eleven 1.5-fold serial dilutions from a stock of 1 ng/mL recombinant human TNF (R&D Systems). Plates were incubated at room temperature for 1 h on orbital shaker (300 rpm), washed and replenished with 100 μL/well of 0.5 μg/mL goat anti-human TNF-α (R&D systems #AB-210-NA) biotinylated at a 4:1 ratio. Plates were incubated for 40 min, washed and replenished with 100 μL/well of alkaline phosphatase-conjugated streptavidin (Jackson ImmunoResearch #016-050-084) at 0.02 μg/mL. Plates were incubated 30 min, washed and replenished with 200 μL/well of 1 mg/mL of p-nitrophenyl phosphate. After 30 min, plates were read at 405 nm on a Vmax plate reader.

Row | Compound | IC50 [1] [nM] | IC50 [2] [nM]
1 | Cc1ccc(C(=O)Nc2ccnn2C)cc1-c1ccc2c(OCC(F)(F)F)nncc2c1 [Example 2, 4-Methyl-N-(1-methyl-1H-pyrazol-5-yl)-3-(1-(2,2,2-trifluoroethoxy)phthalazin-6-yl)benzamide] | ≤ 10 | 
2 | CCn1nccc1NC(=O)c1ccc(C)c(-c2ccc3c(NC(C)C)nncc3c2)c1 [Example 3, N-(1-Ethyl-1H-pyrazol-5-yl)-3-(1-(isopropylamino)phthalazin-6-yl)-4-methylbenzamide] | ≤ 10 | ≤ 10
3 | Cc1ccc(C(=O)Nc2ccnn2C)cc1-c1ccc2c(-c3ccccc3C)nncc2c1 [Example 5, 4-methyl-N-(1-methyl-1H-pyrazol-5-yl)-3-(1-o-tolylphthalazin-6-yl)benzamide] | ≤ 10 | ≤ 10

Now from value to compound, other results behind:

Row | IC50 [1] [nM] | Compound | IC50 [2] [nM]
4 | ≤ 10 | CC(C)Nc1nncc2cc(-c3cc(C(=O)NC4CC4)ccc3Cl)ccc12 [Example 23, 4-chloro-N-cyclopropyl-3-(1-((1-methylethyl)amino)-6-phthalazinyl)benzamide] | 
5 | ≤ 10 | CC(C)Oc1nncc2cc(-c3cc(C(N)=O)ccc3Cl)ccc12 [Example 25, 4-chloro-3-(1-((1-methylethyl)oxy)-6-phthalazinyl)benzamide] | 
6 | ≤ 100 | Cc1ccc(C(=O)NC2CC2)cc1-c1ccc2c(OC(CF)CF)nncc2c1 [Example 49, N-cyclopropyl-3-(1-((2-fluoro-1-(fluoromethyl)ethyl)oxy)-6-phthalazinyl)-4-methylbenzamide] | 
